# Assay results from PMC5218480 (PLoS ONE, 2017).
# System: MV-4-11 cells
# Experiment: Gene expression microarray analysis (Affymetrix PrimeView) and GSEA
# Assay type: cell-based, human
# Parameters: RFU PODN (11730768_x_at) / Fold change /veh PODN (11730768_x_at) / RFU LINC00158 (11744669_a_at) / Fold change /veh LINC00158 (11744669_a_at) / RFU DUSP10 (11751237_a_at) / Fold change /veh DUSP10 (11751237_a_at) / RFU ID3 (11757404_x_at) / Fold change /veh ID3 (11757404_x_at) / RFU PLEKHG5 (11737974_s_at) / Fold change /veh PLEKHG5 (11737974_s_at) / RFU LRRC4B (11730491_at) / Fold change /veh LRRC4B (11730491_at) / RFU GIMAP4 (11747438_a_at) / Fold change /veh GIMAP4 (11747438_a_at) / RFU KRT8 (11758183_x_at) / Fold change /veh KRT8 (11758183_x_at) / RFU CNN1 (11734310_a_at) / Fold change /veh CNN1 (11734310_a_at) / RFU VPS37D (11726825_at) / Fold change /veh VPS37D (11726825_at) / RFU C10orf10 (11716522_x_at) / Fold change /veh C10orf10 (11716522_x_at) / RFU KIR2DL2 /// KIR2DL4 /// KIR2DL5A /// KIR2DL5B /// KIR2DS1 /// KIR2DS2 /// KIR2DS3 /// KIR2DS4 /// KIR3DL3 /// KIR3DL3 /// KIR3DS1 (11738374_at) / Fold change /veh KIR2DL2 /// KIR2DL4 /// KIR2DL5A /// KIR2DL5B /// KIR2DS1 /// KIR2DS2 /// KIR2DS3 /// KIR2DS4 /// KIR3DL3 /// KIR3DL3 /// KIR3DS1 (11738374_at) / RFU C1QL1 (11718748_at) / Fold change /veh C1QL1 (11718748_at) / RFU TMPRSS4 (11747572_a_at) / Fold change /veh TMPRSS4 (11747572_a_at) / RFU HAMP (11756126_x_at) / Fold change /veh HAMP (11756126_x_at) / RFU RNFT2 (11725882_a_at) / Fold change /veh RNFT2 (11725882_a_at) / RFU NR4A2 (11747474_a_at) / Fold change /veh NR4A2 (11747474_a_at) / RFU ABCC12 (11746883_a_at) / Fold change /veh ABCC12 (11746883_a_at) / RFU TMEM136 (11760407_x_at) / Fold change /veh TMEM136 (11760407_x_at) / RFU CLDN22 /// WWC2 (11732394_at) / Fold change /veh CLDN22 /// WWC2 (11732394_at) / RFU HLA-DPB1 (11760878_x_at) / Fold change /veh HLA-DPB1 (11760878_x_at) / RFU SPINT1 (11716480_a_at) / Fold change /veh SPINT1 (11716480_a_at) / RFU GAP43 (11754022_s_at) / Fold change /veh GAP43 (11754022_s_at) / RFU A4GNT (11735810_at) / Fold change /veh A4GNT (11735810_at) / RFU PRB3 (11715151_x_at) / Fold change /veh PRB3 (11715151_x_at) / RFU TUBB4B (11761932_at) / Fold change /veh TUBB4B (11761932_at) / RFU CAPN14 (11732068_a_at) / Fold change /veh CAPN14 (11732068_a_at) / RFU TMCC2 (11721928_a_at) / Fold change /veh TMCC2 (11721928_a_at) / RFU IRGQ (11745062_a_at) / Fold change /veh IRGQ (11745062_a_at) / RFU FAM174B (11720279_a_at) / Fold change /veh FAM174B (11720279_a_at) / RFU TMPRSS4 (11748680_a_at) / Fold change /veh TMPRSS4 (11748680_a_at) / RFU FAM212B (11763350_a_at) / Fold change /veh FAM212B (11763350_a_at) / RFU PLEKHG5 (11743358_a_at) / Fold change /veh PLEKHG5 (11743358_a_at) / RFU ZSCAN30 (11745921_a_at) / Fold change /veh ZSCAN30 (11745921_a_at) / RFU CMKLR1 (11741424_a_at) / Fold change /veh CMKLR1 (11741424_a_at) / RFU LOC101060620 /// MAPK8IP1 (11723275_at) / Fold change /veh LOC101060620 /// MAPK8IP1 (11723275_at) / RFU SPTSSB (11747773_x_at) / Fold change /veh SPTSSB (11747773_x_at) / RFU PRSS12 (11739890_at) / Fold change /veh PRSS12 (11739890_at) / RFU BIN1 (11741810_x_at) / Fold change /veh BIN1 (11741810_x_at) / RFU WNT11 (11732464_a_at) / Fold change /veh WNT11 (11732464_a_at) / RFU C10orf10 (11716521_a_at) / Fold change /veh C10orf10 (11716521_a_at) / RFU C5orf56 (11738089_at) / Fold change /veh C5orf56 (11738089_at) / RFU CYB561 (11721691_x_at) / Fold change /veh CYB561 (11721691_x_at) / RFU ANKRD19P (11752326_a_at) / Fold change /veh ANKRD19P (11752326_a_at) / RFU OR2T12 /// OR2T33 /// OR2T8 (11738714_s_at) / Fold change /veh OR2T12 /// OR2T33 /// OR2T8 (11738714_s_at) / RFU VCAN (11748164_a_at) / Fold change /veh VCAN (11748164_a_at) / RFU JSRP1 (11732532_at) / Fold change /veh JSRP1 (11732532_at) / RFU KRTAP10-11 (11738290_x_at) / Fold change /veh KRTAP10-11 (11738290_x_at) / RFU MYO3A (11730013_a_at) / Fold change /veh MYO3A (11730013_a_at) / RFU EBF3 (11725865_a_at) / Fold change /veh EBF3 (11725865_a_at) / RFU CAMK2N1 (11719241_x_at) / Fold change /veh CAMK2N1 (11719241_x_at) / RFU C5orf56 (11738088_a_at) / Fold change /veh C5orf56 (11738088_a_at) / RFU OLFML3 (11715873_a_at) / Fold change /veh OLFML3 (11715873_a_at) / RFU LOC100653217 /// NTM (11731650_a_at) / Fold change /veh LOC100653217 /// NTM (11731650_a_at) / RFU MAPK11 (11762145_a_at) / Fold change /veh MAPK11 (11762145_a_at) / RFU FIZ1 (11724087_x_at) / Fold change /veh FIZ1 (11724087_x_at) / RFU OASL (11726364_x_at) / Fold change /veh OASL (11726364_x_at) / RFU SOX15 (11748057_x_at) / Fold change /veh SOX15 (11748057_x_at) / RFU CD79A (11719716_a_at) / Fold change /veh CD79A (11719716_a_at) / RFU HIST1H1D (11736915_at) / Fold change /veh HIST1H1D (11736915_at) / RFU CASKIN2 (11723855_a_at) / Fold change /veh CASKIN2 (11723855_a_at) / RFU LOC730098 (11760151_x_at) / Fold change /veh LOC730098 (11760151_x_at) / RFU OR4N2 (11742367_at) / Fold change /veh OR4N2 (11742367_at) / RFU PRRT2 (11749266_a_at) / Fold change /veh PRRT2 (11749266_a_at) / RFU SNX32 (11753110_a_at) / Fold change /veh SNX32 (11753110_a_at) / RFU CDHR5 (11726645_a_at) / Fold change /veh CDHR5 (11726645_a_at) / RFU RCAN1 (11760418_a_at) / Fold change /veh RCAN1 (11760418_a_at) / RFU FAM167A (11723789_a_at) / Fold change /veh FAM167A (11723789_a_at) / RFU FAM26E (11764081_at) / Fold change /veh FAM26E (11764081_at) / RFU ISYNA1 (11749810_s_at) / Fold change /veh ISYNA1 (11749810_s_at) / RFU ACY1 (11761880_at) / Fold change /veh ACY1 (11761880_at) / RFU 11764098_at / Fold change /veh 11764098_at / RFU SAMD14 (11745864_x_at) / Fold change /veh SAMD14 (11745864_x_at) / RFU NPB (11741838_a_at) / Fold change /veh NPB (11741838_a_at) / RFU TMPRSS6 (11731388_a_at) / Fold change /veh TMPRSS6 (11731388_a_at) / RFU KRTAP10-2 (11738614_at) / Fold change /veh KRTAP10-2 (11738614_at) / RFU ARHGAP8 /// PRR5-ARHGAP8 (11727945_x_at) / Fold change /veh ARHGAP8 /// PRR5-ARHGAP8 (11727945_x_at) / RFU KRTAP5-7 /// NADSYN1 (11734609_at) / Fold change /veh KRTAP5-7 /// NADSYN1 (11734609_at) / RFU RASL12 (11751679_a_at) / Fold change /veh RASL12 (11751679_a_at) / RFU CDKN2B (11736163_a_at) / Fold change /veh CDKN2B (11736163_a_at) / RFU PRF1 (11729649_at) / Fold change /veh PRF1 (11729649_at) / RFU, ZNF638 /// ZNF638-IT1 / Fold change vs veh, ZNF638 /// ZNF638-IT1 / RFU, PANK3 / Fold change vs veh, PANK3 / RFU, SH3YL1 / Fold change vs veh, SH3YL1 / RFU, ZEB2 / Fold change vs veh, ZEB2 / RFU, NRIP1 / Fold change vs veh, NRIP1 / RFU, PTTG1IP / Fold change vs veh, PTTG1IP / RFU, CAPN2 / Fold change vs veh, CAPN2 / RFU, MED14 / Fold change vs veh, MED14 / RFU, SNORA58 / Fold change vs veh, SNORA58 / RFU, C1orf63 / Fold change vs veh, C1orf63 / RFU, LRRFIP1 / Fold change vs veh, LRRFIP1 / RFU, NDUFAF7 / Fold change vs veh, NDUFAF7 / RFU, SLC12A2 / Fold change vs veh, SLC12A2 / RFU, IBTK / Fold change vs veh, IBTK / RFU, ESF1 / Fold change vs veh, ESF1 / Fold change vs veh, TMEM50B / RFU, TAOK1 / Fold change vs veh, TAOK1 / RFU, ACBD3 / Fold change vs veh, ACBD3 / RFU, TMA16 / Fold change vs veh, TMA16 / RFU, RWDD3 / Fold change vs veh, RWDD3 / RFU, BCAT1 / Fold change vs veh, BCAT1 / RFU, EDEM3 / Fold change vs veh, EDEM3 / RFU, TMEM33 / Fold change vs veh, TMEM33 / RFU, WDR75 / Fold change vs veh, WDR75 / RFU, AHCTF1 / Fold change vs veh, AHCTF1 / RFU, TFRC / Fold change vs veh, TFRC / RFU, ZDHHC17 / Fold change vs veh, ZDHHC17 / RFU, NOM1 / Fold change vs veh, NOM1 / RFU, ARL8B / Fold change vs veh, ARL8B / RFU, ZBTB11 / Fold change vs veh, ZBTB11 / RFU, TAMM41 / Fold change vs veh, TAMM41 / RFU, KIAA1704 /// LOC100996395 / Fold change vs veh, KIAA1704 /// LOC100996395 / RFU, ING1 / Fold change vs veh, ING1 / RFU, TRMT61B / Fold change vs veh, TRMT61B / RFU, FUBP3 / Fold change vs veh, FUBP3 / RFU, TP53 / Fold change vs veh, TP53 / RFU, TNKS2 / Fold change vs veh, TNKS2 / RFU, ZFP14 / Fold change vs veh, ZFP14 / RFU, ACTR2 / Fold change vs veh, ACTR2 / RFU, PPP3R1 / Fold change vs veh, PPP3R1 / RFU, PIK3R1 / Fold change vs veh, PIK3R1 / RFU, HNRNPA1 / Fold change vs veh, HNRNPA1 / RFU, RNF170 / Fold change vs veh, RNF170 / RFU, ZNF28 / Fold change vs veh, ZNF28 / RFU, RNGTT / Fold change vs veh, RNGTT / RFU, OGT / Fold change vs veh, OGT / RFU, BRD1 / Fold change vs veh, BRD1 / RFU, MARS / Fold change vs veh, MARS / RFU, ZNF655 / Fold change vs veh, ZNF655 / RFU, FAHD1 / Fold change vs veh, FAHD1 / RFU, BDP1 / Fold change vs veh, BDP1 / RFU, LRRCC1 / Fold change vs veh, LRRCC1 / RFU, ARID1A / Fold change vs veh, ARID1A / RFU, ZNF146 / Fold change vs veh, ZNF146 / RFU, ZNF330 / Fold change vs veh, ZNF330 / RFU, GPN3 / Fold change vs veh, GPN3 / RFU, C9orf123 / Fold change vs veh, C9orf123 / RFU, N4BP2L2 / Fold change vs veh, N4BP2L2 / RFU, ARFIP1 / Fold change vs veh, ARFIP1 / RFU, FAM179B / Fold change vs veh, FAM179B / RFU, BCL10 / Fold change vs veh, BCL10 / RFU, UHRF1BP1L / Fold change vs veh, UHRF1BP1L / RFU, BET1 / Fold change vs veh, BET1 / RFU, CNOT2 / Fold change vs veh, CNOT2 / RFU, ZNF268 / Fold change vs veh, ZNF268 / Fold change vs veh, ZNF507 / RFU, DGCR2 / Fold change vs veh, DGCR2 / RFU, WDSUB1 / Fold change vs veh, WDSUB1 / Fold change vs veh, HSP90B1 /// MIR3652 / RFU, ADSS / Fold change vs veh, ADSS / RFU, GK / Fold change vs veh, GK / RFU, ZNF148 / Fold change vs veh, ZNF148 / RFU, TAF9 / Fold change vs veh, TAF9 / RFU, SLC1A5 / Fold change vs veh, SLC1A5 / RFU, SLMO2 / Fold change vs veh, SLMO2 / RFU, ABCC4 / Fold change vs veh, ABCC4 / RFU, LOC101060439 /// RAP1B / Fold change vs veh, LOC101060439 /// RAP1B / RFU, RFX7 / Fold change vs veh, RFX7 / RFU, GTPBP10 / Fold change vs veh, GTPBP10 / RFU, CNEP1R1 / Fold change vs veh, CNEP1R1 / RFU, BIVM-ERCC5 /// ERCC5 / Fold change vs veh, BIVM-ERCC5 /// ERCC5 / RFU, ILF3 / Fold change vs veh, ILF3 / RFU 11762660_at / Fold change /veh 11762660_at / RFU VCAN (11757783_s_at) / Fold change /veh VCAN (11757783_s_at) / RFU DDX43 (11728927_at) / Fold change /veh DDX43 (11728927_at) / RFU KRT8 (11758188_x_at) / Fold change /veh KRT8 (11758188_x_at) / RFU NKD1 (11759106_at) / Fold change /veh NKD1 (11759106_at) / RFU SRD5A1 (11742802_a_at) / Fold change /veh SRD5A1 (11742802_a_at) / RFU TPSAB1 /// TPSB2 (11721975_s_at) / Fold change /veh TPSAB1 /// TPSB2 (11721975_s_at) / RFU GSTM3 (11746129_a_at) / Fold change /veh GSTM3 (11746129_a_at) / RFU IL23R (11737362_x_at) / Fold change /veh IL23R (11737362_x_at) / RFU TMEM51 (11727254_a_at) / Fold change /veh TMEM51 (11727254_a_at) / RFU PIWIL2 (11732686_x_at) / Fold change /veh PIWIL2 (11732686_x_at) / RFU ORM1 (11744905_x_at) / Fold change /veh ORM1 (11744905_x_at) / RFU CCDC152 (11743942_at) / Fold change /veh CCDC152 (11743942_at) / RFU ECM1 (11717891_a_at) / Fold change /veh ECM1 (11717891_a_at) / RFU IL23R (11748794_a_at) / Fold change /veh IL23R (11748794_a_at) / RFU TNFAIP8L3 (11732012_x_at) / Fold change /veh TNFAIP8L3 (11732012_x_at) / RFU MBOAT4 (11741988_at) / Fold change /veh MBOAT4 (11741988_at) / RFU 11764193_at / Fold change /veh 11764193_at / RFU TMEM53 (11763286_at) / Fold change /veh TMEM53 (11763286_at) / RFU MAGEB2 (11727129_at) / Fold change /veh MAGEB2 (11727129_at) / RFU TMEM200A (11744735_a_at) / Fold change /veh TMEM200A (11744735_a_at) / RFU CCDC152 (11751479_a_at) / Fold change /veh CCDC152 (11751479_a_at) / RFU FAM211A (11726209_a_at) / Fold change /veh FAM211A (11726209_a_at) / RFU RGS16 (11746705_a_at) / Fold change /veh RGS16 (11746705_a_at) / RFU VCAN (11755009_s_at) / Fold change /veh VCAN (11755009_s_at) / RFU RHOB (11743442_s_at) / Fold change /veh RHOB (11743442_s_at) / RFU RGS16 (11720943_a_at) / Fold change /veh RGS16 (11720943_a_at) / RFU RGS16 (11720944_at) / Fold change /veh RGS16 (11720944_at) / RFU, VPS4B / Fold change vs veh, VPS4B / RFU, CREB1 / Fold change vs veh, CREB1 / RFU, DNAJC13 / Fold change vs veh, DNAJC13 / RFU, GNAQ / Fold change vs veh, GNAQ / RFU, CDK5R1 / Fold change vs veh, CDK5R1 / RFU, ZRANB3 / Fold change vs veh, ZRANB3 / RFU, CUL4A / Fold change vs veh, CUL4A / RFU, CCNY / Fold change vs veh, CCNY / RFU, UFL1 / Fold change vs veh, UFL1 / RFU, COG3 / Fold change vs veh, COG3 / RFU, DIAPH2 / Fold change vs veh, DIAPH2 / RFU, SKA2 / Fold change vs veh, SKA2 / RFU, AFF3 / Fold change vs veh, AFF3 / RFU, LMF1 / Fold change vs veh, LMF1 / RFU, IPO11 / Fold change vs veh, IPO11 / RFU, DFFB / Fold change vs veh, DFFB / RFU, FOXP1 / Fold change vs veh, FOXP1 / RFU, CARD8 / Fold change vs veh, CARD8 / RFU, STRN3 / Fold change vs veh, STRN3 / RFU, ADK / Fold change vs veh, ADK / RFU, RASSF2 / Fold change vs veh, RASSF2 / RFU, WIPF1 / Fold change vs veh, WIPF1 / RFU, LARP1B / Fold change vs veh, LARP1B / RFU, RASA1 / Fold change vs veh, RASA1 / RFU, RB1 / Fold change vs veh, RB1 / RFU, PPFIA1 / Fold change vs veh, PPFIA1 / RFU, MAT2A / Fold change vs veh, MAT2A / RFU, CCT5 / Fold change vs veh, CCT5 / RFU, WDR92 / Fold change vs veh, WDR92 / RFU, CUX1 / Fold change vs veh, CUX1 / RFU, TTC7A / Fold change vs veh, TTC7A / RFU, TMEM135 / Fold change vs veh, TMEM135 / RFU, DEPTOR / Fold change vs veh, DEPTOR / RFU, CPM / Fold change vs veh, CPM / RFU, DNAJB6 / Fold change vs veh, DNAJB6 / RFU, CACNA2D3 / Fold change vs veh, CACNA2D3 / RFU, DTX4 / Fold change vs veh, DTX4 / RFU, TFCP2 / Fold change vs veh, TFCP2 / RFU, GMCL1 /// GMCL1P1 / Fold change vs veh, GMCL1 /// GMCL1P1 / RFU, AEBP2 / Fold change vs veh, AEBP2 / RFU, SNHG1 /// SNORD22 /// SNORD25 /// SNORD26 /// SNORD27 /// SNORD28 /// SNORD29 /// SNORD31 / Fold change vs veh, SNHG1 /// SNORD22 /// SNORD25 /// SNORD26 /// SNORD27 /// SNORD28 /// SNORD29 /// SNORD31 / Fold change (Aza/veh), C12orf56 (ProbeSet 11735607_a_at) / Fold change (ACY-1035/veh), C12orf56 (ProbeSet 11735607_a_at) / Fold change (Aza/veh), FGFR1OP (ProbeSet 11751329_s_at) / Fold change (ACY-1035/veh), FGFR1OP (ProbeSet 11751329_s_at) / Fold change (Aza/veh), VPS36 (ProbeSet 11739960_a_at) / Fold change (ACY-1035/veh), VPS36 (ProbeSet 11739960_a_at) / RFU SYPL1 (11715823_x_at) / Fold change /veh SYPL1 (11715823_x_at) / RFU IGFBP7 (11715501_s_at) / Fold change /veh IGFBP7 (11715501_s_at) / RFU REEP3 (11722064_at) / Fold change /veh REEP3 (11722064_at) / RFU IGLL1 (11728026_x_at) / Fold change /veh IGLL1 (11728026_x_at): dose or concentration left out as unconfirmed
# Settings: ProbeSet 11716891_at; LIST B
compound,measurement,value
Nc1ccc(-c2cccs2)cc1NC(=O)c1ccc2c(c1)cc(C1CC1)n2CCN1CCOCC1 [ACY-1035],"RFU, C9orf123",39.54 RFU
